The text below walks through data of PubChem BioAssay (NCI).

Each structure is given as a SMILES string.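 Grown in 96-well plates, cells were treated for 48 hours with each compound at five concentrations. Insufficient inhibition: endpoint recorded as highest concentration tested. Here, GI50 denotes the concentration required for 50% inhibition of growth. TGI marks complete inhibition of growth.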 Where only a bound is given, the exact number is not on record here.

In the first assay the test system is HOP-62 NSCLC. The assay can be described thus: NCI anticancer screen, dose series, 48 h.
In the case of `CO/N=C(\COc1ccc2c(c1)[nH]c1ccccc12)c1ccc(F)cc1`, the GI50 was 6.44 µM and the TGI was 26.7 µM.
For the compound `COc1cc(C(=O)C/C(CCC(=O)Nc2ccccc2[N+](=O)[O-])=N\NC(N)=O)ccc1O`, the TGI was more than 100 µM.
`CCN(CC)CC1c2ccccc2C(CNc2ccccc2)N1C` (stereo not drawn) showed a TGI of more than 100 µM.
Regarding `CC1(O)C=CC(=O)C=C1`, the TGI is more than 79.9 µM.
Turning to `COc1cc2c3c(n(C)c(=O)c2cc1OC)-c1cc2c(cc1/C3=C\CCCCN1C(=O)c3ccccc3C1=O)OCO2`, the GI50 was 17.4 µM and the TGI came out at 70.4 µM.
Compound `CC(=O)Nc1ccc(SC#N)c2c(NC(C)=O)cccc12` gave a TGI of more than 100 µM.
The same measure, in the same setting: next, `Cc1ccc(-c2nnc(-c3nn(-c4ccccc4)c4nc5ccccc5nc34)o2)cc1`: 27.3 µM; `NNC(=O)CS(=O)(=O)Nc1ncccn1`: more than 100 µM.
Turning to `COc1cccc(OC(=O)c2ccc(C(F)(F)F)nc2Nc2cc(Cl)ccc2C)c1`, the GI50 was 15.6 µM and the TGI was 36.1 µM.
Compound `Cc1ccc2c(C3Cc4ccccc4N3C(=O)/C=C\C(=O)O)c(C)[nH]c2c1` (stereo not drawn) returned a TGI of more than 100 µM.
In turn, `COc1ccc(C=O)c([N+](=O)[O-])c1` returned a TGI of more than 100 µM.
In the case of `CCOC(=O)C1C(=S)NC(=O)C1C#N` (stereo not drawn), the TGI is more than 100 µM.
Regarding `COC(=O)C1(C)CCc2c(OC)ccc(OC)c2C1=O` (stereo not drawn), the TGI is more than 100 µM.
In the case of `COC(=O)C1CC2CC(=NNC(N)=O)CC2C1` (stereo not drawn), the TGI was more than 100 µM.
Take `CC#CCC1CCC(OCC)=CC1=O` (stereo not drawn): the TGI was more than 100 µM.
The compound `O=C1CC(c2c[nH]c3ccccc23)C(=O)N1` (stereo not drawn) had a TGI of more than 100 µM.
For `N#CC(=C1C=CC(=NO)C=C1)c1ccc(Cl)cc1`, the TGI amounted to 41.6 µM.
`Cc1c(/C=N/N=C/c2[nH]c(C(=O)OC(C)(C)C)c(C)c2C)[nH]c(C(=O)OC(C)(C)C)c1C`: the TGI is more than 100 µM.
As to `CCOC(=O)C1=C(C)N(c2ccc(Cl)cc2)[C@]2(C#N)C(O)=C(Cl)C(Cl)=C(O)[C@]12C#N`, the GI50 was more than 100 µM and the TGI was more than 100 µM.

The subject of the next assay is IGROV1 ovarian. Briefly: NCI anticancer screen, dose series, 48 h.
For `COc1cc(N2C(=O)[C@H](O)C2c2ccc(SC)cc2)cc(OC)c1OC` (stereo partly drawn), the GI50 was less than 0.01 µM and the TGI is more than 100 µM.
In turn, `CCC(=O)C12OC3OC(C)(C)OC3C1OC(C)(C)O2` (stereo not drawn) registered a TGI of more than 100 µM.
As to `CC/C=C\C/C=C\C/C=C\CCCCCCCC(=O)OCC(O)CO` (stereo not drawn), the TGI is more than 100 µM.
In turn, `Cc1cccc(C)c1NC(=O)/C(=N/NC(N)=S)C(C)C(=O)c1ccc(Cl)cc1` (stereo not drawn) showed a TGI of more than 100 µM.
`N#CC(C#N)=C1NC(=O)CC(=O)N1`: the TGI was more than 100 µM.
For `Fc1ccc(C2SCc3nc4ccccc4n32)c(F)c1` (stereo not drawn), the TGI was more than 100 µM.
Take `CO/N=C(\COc1ccc2c(c1)[nH]c1ccccc12)c1ccc(F)cc1`: the GI50 was 77.3 µM and the TGI was more than 100 µM.
On to `COc1cc(C(=O)C/C(CCC(=O)Nc2ccccc2[N+](=O)[O-])=N\NC(N)=O)ccc1O`, for which the TGI is more than 100 µM.
`CCN(CC)CC1c2ccccc2C(CNc2ccccc2)N1C` (stereo not drawn) returned a TGI of more than 100 µM.
In the case of `O=C(/C=C\c1cccc([N+](=O)[O-])c1)/C=C/c1cccc([N+](=O)[O-])c1`, the GI50 was 2.44 µM and the TGI worked out at 6.3 µM.
For `CC1(O)C=CC(=O)C=C1`, the TGI was determined as 70.2 µM.
With `COc1ccc(-c2cc(Cc3cccs3)c(=O)[nH]n2)cc1`, the TGI was more than 100 µM.
In turn, `CC(=O)Nc1ccc(SC#N)c2c(NC(C)=O)cccc12` had a TGI of more than 100 µM.
For `Cc1ccc(-c2nnc(-c3nn(-c4ccccc4)c4nc5ccccc5nc34)o2)cc1`, the TGI was 41.7 µM.
In turn, `NNC(=O)CS(=O)(=O)Nc1ncccn1` came in with a TGI of more than 100 µM.
In the case of `COc1cccc(OC(=O)c2ccc(C(F)(F)F)nc2Nc2cc(Cl)ccc2C)c1`, the GI50 is 8.35 µM and the TGI is more than 100 µM.
On to `Cc1ccc2c(C3Cc4ccccc4N3C(=O)/C=C\C(=O)O)c(C)[nH]c2c1` (stereo not drawn), for which the TGI is more than 100 µM.
On the same count and under the same terms, next, `COc1ccc(C=O)c([N+](=O)[O-])c1`: more than 100 µM; `CCOC(=O)C1C(=S)NC(=O)C1C#N` (stereo not drawn): more than 100 µM.
As to `COC(=O)C1(C)CCc2c(OC)ccc(OC)c2C1=O` (stereo not drawn), the TGI was more than 100 µM.
On the same count and under the same terms, next, `COC(=O)C1CC2CC(=NNC(N)=O)CC2C1` (stereo not drawn): more than 100 µM.
Compound `CC#CCC1CCC(OCC)=CC1=O` (stereo not drawn) registered a TGI of more than 100 µM.
As for `O=C1CC(c2c[nH]c3ccccc23)C(=O)N1` (stereo not drawn), the TGI is more than 100 µM.
With `N#CC(=C1C=CC(=NO)C=C1)c1ccc(Cl)cc1`, the TGI turned out to be 56.1 µM.
Still for that read-out and setting: the figure for `Cc1c(/C=N/N=C/c2[nH]c(C(=O)OC(C)(C)C)c(C)c2C)[nH]c(C(=O)OC(C)(C)C)c1C` is more than 100 µM; for `O=C(NC1CCCCC1)NS(=O)(=O)c1ccc2c(c1)CCC2` it is more than 100 µM.
Turning to `CCOC(=O)C1=C(C)N(c2ccc(Cl)cc2)[C@]2(C#N)C(O)=C(Cl)C(Cl)=C(O)[C@]12C#N`, the GI50 is more than 100 µM and the TGI was more than 100 µM.

The test system of a further assay is MDA-MB-435. Briefly: NCI anticancer screen, dose series, 48 h.
As for `CO/N=C(\COc1ccc2c(c1)[nH]c1ccccc12)c1ccc(F)cc1`, the GI50 is more than 100 µM and the TGI is more than 100 µM.
For the compound `O=C(/C=C\c1cccc([N+](=O)[O-])c1)/C=C/c1cccc([N+](=O)[O-])c1`, the GI50 was 2.79 µM and the TGI was 12.4 µM.
`COc1cc2c3c(n(C)c(=O)c2cc1OC)-c1cc2c(cc1/C3=C\CCCCN1C(=O)c3ccccc3C1=O)OCO2`: the GI50 is more than 100 µM and the TGI is more than 100 µM.
Consider `NNC(=O)CS(=O)(=O)Nc1ncccn1`, for which the TGI is more than 100 µM.
With `COc1cccc(OC(=O)c2ccc(C(F)(F)F)nc2Nc2cc(Cl)ccc2C)c1`, the GI50 is 24.2 µM and the TGI was found to be 58.2 µM.
For `CCOC(=O)C1=C(C)N(c2ccc(Cl)cc2)[C@]2(C#N)C(O)=C(Cl)C(Cl)=C(O)[C@]12C#N`, the GI50 is 44.8 µM and the TGI is more than 100 µM.

The subject of a further assay is OVCAR-3 ovarian. Briefly: NCI anticancer screen, dose series, 48 h.
Regarding `COc1cc(N2C(=O)[C@H](O)C2c2ccc(SC)cc2)cc(OC)c1OC` (stereo partly drawn), the GI50 was less than 0.01 µM and the TGI amounted to 0.0138 µM.
